Data set [1] deals with T1, RPE65 (Bos taurus, UniProt Q28175).
T1 construct: Bovine RPE microsomes were prepared as described previously; from tissue; host or cells: bovine retinal pigment epithelium (RPE) microsomes
Put plainly: In vitro retinol isomerase (isomerohydrolase, IMH) assay with bovine RPE microsomes. It is filed as biochemical. The method, then: FIG. 2. Inhibition of the RPE65 isomerase activity by RPE65-61. Bovine RPE microsomes (20 μg) were incubated with 0.2 μM of all-trans-[3H]-retinol in the presence or absence of RPE65-61 for 1 h at 37° C. The generated retinoids were analyzed by HPLC coupled with flow scintillation analyzer. (FIG. 2A) HPLC elution profile without inhibitor; (FIG. 2B) with 375 nM of RPE65-61. Peak 1, retinyl esters; Peak 2, 11-cis-retinol; Peak 3 all-trans-retinol.
All-trans [11,12-^3H]-retinol (1 mCi/ml, 45.5 Ci/mmol, Perkin Elmer, Boston, MA) in N,N-dimethyl formamide (DMF) was used as the substrate for the isomerohydrolase assay. Bovine RPE microsomes were prepared as described previously. For each reaction, 25 μg microsomal proteins from the bovine RPE were added into 200 μl of reaction buffer (10 mM BTP, pH 8.0, 100 mM NaCl) containing 0.2 μM of all-trans retinol, 1% BSA and 25 μM of cellular retinaldehyde-binding protein (CRALBP). For the inhibition of isomerase activity, RPE65-61 dissolved in the DMF was added to the reaction prior to addition of all-trans retinol. The reaction was stopped and retinoids extracted with 300 μl of cold methanol and 300 μl of hexane and centrifuged at 10,000×g for 5 min. The upper layer was collected and the generated retinoids were analyzed by normal phase HPLC as described (Moiseyev, G. et al. 2003). […] The isomerohydrolase activity was calculated from the area of the 11-cis retinol peak using Radiomatic 610TR software (Perkin Elmer, Boston, MA) with synthetic 11-cis [^3H]-retinol as a standard. […] The retinoid profile after completion of the reaction was analyzed by HPLC where the peaks were identified by co-elution with retinoid standards. The RPE65 isomehydrolase activity was calculated based on the 11-cis retinol peak area as described (Moiseyev, G. et al. 2005; Nikolaeva, O. et al. 2009). […] The inhibition constant for RPE65-61 was calculated from the following equation: Ki=[I]/([…]) where [I] is concentration of inhibitor, Vm is maximal velocity in the absence of the inhibitor, and Vmi is maximal velocity in the presence of the inhibitor.

In data set [2] the target is T2, VAP-1 (Homo sapiens, UniProt Q16853).
T2 sequence (Q16853 29-763 limits assumed): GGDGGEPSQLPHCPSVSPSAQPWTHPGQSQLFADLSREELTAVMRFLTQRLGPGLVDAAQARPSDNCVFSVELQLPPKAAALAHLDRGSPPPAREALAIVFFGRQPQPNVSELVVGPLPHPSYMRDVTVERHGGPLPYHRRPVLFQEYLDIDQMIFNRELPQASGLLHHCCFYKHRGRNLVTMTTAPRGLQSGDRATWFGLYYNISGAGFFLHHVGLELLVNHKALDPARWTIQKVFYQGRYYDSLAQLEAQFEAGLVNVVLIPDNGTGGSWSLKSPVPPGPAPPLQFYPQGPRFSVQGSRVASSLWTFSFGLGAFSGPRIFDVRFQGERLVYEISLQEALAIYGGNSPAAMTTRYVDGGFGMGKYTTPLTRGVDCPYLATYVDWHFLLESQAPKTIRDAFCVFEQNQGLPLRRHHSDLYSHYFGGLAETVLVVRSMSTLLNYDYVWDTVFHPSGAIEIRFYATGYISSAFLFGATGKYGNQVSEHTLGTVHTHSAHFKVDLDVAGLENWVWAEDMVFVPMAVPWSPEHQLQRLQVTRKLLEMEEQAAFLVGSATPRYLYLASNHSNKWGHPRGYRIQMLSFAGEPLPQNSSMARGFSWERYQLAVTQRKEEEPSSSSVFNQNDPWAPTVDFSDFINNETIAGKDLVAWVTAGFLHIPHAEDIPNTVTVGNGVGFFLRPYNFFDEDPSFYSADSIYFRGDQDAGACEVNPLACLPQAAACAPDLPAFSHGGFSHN
In words: in vitro. Particulars: both, plasma, pH 7.4.
Procedure: Studies were carried out in mixed-gender human plasma (Lot #HMN330460) and male Beagle dog plasma (Lot #BGL118112), obtained from BioIVT and collected on sodium heparin. Plasma was adjusted to pH 7.4 prior to initiating the experiments. DMSO stocks were first prepared for the test articles. Aliquots of the DMSO solutions were dosed into 1 mL of plasma, which had been pre-warmed to 37° C., at a final test article concentration of 1 μM. The vials were kept in a benchtop Thermomixer® for the duration of the experiment. Aliquots (100 μL) were taken at each time point (0, 15, 30, 60, and 120 minutes) and added to 96-well plates, which had been pre-filled with 300 μL of acetonitrile (ACN). Samples were stored at 4° C. until the end of the experiment. After the final time point was sampled, the plate was mixed and then centrifuged at 3,000 rpm for 10 minutes. Aliquots of the supernatant were removed, diluted 1:1 into distilled water, and analyzed by LC-MS/MS. The peak area response ratio to internal standard (PARR) was compared to the PARR at time 0 to determine the percent of test article remaining at each time point. Half-lives were calculated using GraphPad software, fitting to a single-phase exponential decay equation.

Structures are written as SMILES. Read-outs that look alike come from different tables or passages of the source.

T1 sequence (Q28175 whole entry): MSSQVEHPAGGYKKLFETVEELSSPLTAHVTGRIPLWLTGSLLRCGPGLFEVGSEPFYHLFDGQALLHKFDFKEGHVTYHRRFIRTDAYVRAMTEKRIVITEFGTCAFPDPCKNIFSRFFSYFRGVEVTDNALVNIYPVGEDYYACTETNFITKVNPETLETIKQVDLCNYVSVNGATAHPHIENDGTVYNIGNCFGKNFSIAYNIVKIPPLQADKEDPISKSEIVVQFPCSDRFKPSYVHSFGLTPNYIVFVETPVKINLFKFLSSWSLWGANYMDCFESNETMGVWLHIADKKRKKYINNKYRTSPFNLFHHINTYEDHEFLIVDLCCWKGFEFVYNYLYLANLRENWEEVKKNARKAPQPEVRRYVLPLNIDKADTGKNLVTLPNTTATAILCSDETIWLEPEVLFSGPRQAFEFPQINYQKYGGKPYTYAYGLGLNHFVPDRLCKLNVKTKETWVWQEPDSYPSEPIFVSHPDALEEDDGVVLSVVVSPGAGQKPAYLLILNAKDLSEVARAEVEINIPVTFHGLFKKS

Broadly, the half-life is the time in which the quantity being followed falls by half. Lower therefore signals fast loss. Take `N=S(=O)(CCN)c1cccc(OCC2CCCCC2)c1` (racemic) [RPE65-61, (±)-(2-aminoethyl) (3-(cyclohexylmethoxy)phenyl) (imino)-λ^6-sulfanone]: the “RPE65 inhibition, in words” value in data set [1] is “effectively inhibit”. The IC50 in data set [1] (bovine RPE microsomes, 0.2 μM all-trans-[3H]-retinol, read-out: apparent IC50, RPE65 isomerase activity) turned out to be 80 nM; in data set [1] (read-out: IC50 in the primary IMH / RPE65 inhibition assay), 95 nM. In addition, the half-life at 1 μM in data set [2] was above 2 h.

These data come from patent US20240245647A1, “ISOMEROHYDROLASE INHIBITOR FOR TREATMENT OF ATROPHIC FORM OF AGE-RELATED MACULAR DEGENERATION AND STARGARDT DISEASE” (The Trustees of Columbia University in the City of New York, priority 2021, published 2024).
